Test system: brown marmorated stink bug (BMSB), Halyomorpha halys
Test: Field trials of experimental pheromone constituents, baited black pyramid traps
Assay type: in vivo
Conditions: for field attractiveness to BMSB (in words): 2011-2012 field trapping
From the text: Field Bioassays. Field Trials of Experimental Pheromone Constituents: Pyramid traps based on dimensions previously used for native stink bugs (Leskey and Hogmire 2005, Hogmire and Leskey 2006) and for brown marmorated stink bugs (Leskey et al. 2012c) were used for all trials. […] Each panel was 1.22 m high, 52 cm wide at the base, and 7 cm wide at the top. Collection jars were constructed based on previously published dimensions (Hogmire and Leskey 2006) with internal cone opening of 1.6 cm with trimmed wire edging to reduce escape. In addition, a Hercon Vaportape™ II (Hercon Environmental, Emigsville, Pa.) was added as a killing agent to prevent escape from traps. In a preliminary study, addition of a killing agent increased trap captures ˜250%. Traps were deployed ˜5 meters from the border of apple and pear orchards at the Appalachian Fruit Research Station or in the border area between wood lots and row crops in Kearneysville, W. Va., Shepherdstown, W. Va., Keedysville, Md., and Beltsville, Md. Traps were spaced ˜50 meters apart. Traps were baited with compounds identified from headspace collections of male BMSB, synthesized and formulated into gray rubber septa or left unbaited.
Fourteen trials were conducted between 19 Apr. to 20 Oct. 2011 (Table 3) and four trials between 20 Mar. to 10 Oct. 2012 (Table 4). Traps were checked a minimum of twice weekly and the treatments were re-randomized at each collection.
All adults and nymphs were removed from traps and recorded. Hercon Vaportape™ strips were changed at four week intervals and lures were changed at two week intervals. Comparisons of adult and nymphal captures used the SAS GLM procedure to evaluate effect of treatment and replicate followed by Tukey's HSD if the model was significant. Appropriate transformations were used to stabilize normality if needed. The effect of sex was dropped from all models because it was never a significant factor.

[1] = AFRS 2012, Trial Two, 31 July-14 August
[2] = Beltsville 2012, Trial Two, 1-14 August
[3] = AFRS 2012, Trial Three, 14 August-13 September
[4] = Beltsville 2012, Trial Three, 14 August-11 September
[5] = AFRS 2012, Trial Four, 22 September-10 October
[6] = Beltsville 2012, Trial Four, 17 September-2 October
[7] = AFRS 2011, Trial Eight, 11 August-6 Sept.
[8] = AFRS 2011, Trial One, 19 April-10 May
[9] = Beltsville 2011, Trial Eight, 11 August-6 Sept.
[10] = Beltsville 2011, Trial One, 19 April-10 May

Structure (SMILES) | Mean number BMSB adults (±SE) captured [1] | Mean number BMSB nymphs (±SE) captured [1] | Mean number BMSB adults (±SE) captured [2] | Mean number BMSB nymphs (±SE) captured [2] | field attractiveness to BMSB (in words) | Mean number BMSB adults (±SE) captured [3] | Mean number BMSB nymphs (±SE) captured [3] | Mean number BMSB adults (±SE) captured [4] | Mean number BMSB nymphs (±SE) captured [4] | Mean number BMSB adults (±SE) captured [5] | Mean number BMSB nymphs (±SE) captured [5] | Mean number BMSB adults (±SE) captured [6] | Mean number BMSB nymphs (±SE) captured [6] | also measured
C[C@H](CC[C@@H]1OC1(C)C)[C@@H]1C=C[C@](C)(O)CC1 [Lure #17, (3R,6R,7R,10S)-10,11-epoxy-1-bisabolen-3-ol] | 0.40 ± 0.40bc per treatment | 7.15 ± 2.65ab per treatment | 0.20 ± 0.12ab per treatment | 20.30 ± 8.61 per treatment |  |  |  |  |  |  |  |  |  | 
C[C@H](CC[C@H]1OC1(C)C)[C@@H]1C=C[C@](C)(O)CC1 [Lure #23, (3R,6R,7R,10R)-10,11-epoxy-1-bisabolen-3-ol] |  |  |  |  | not attractive | 0.75 ± 0.29e per treatment | 2.50 ± 0.53c per treatment | 0.90 ± 0.26b per treatment | 8.38 ± 2.90bc per treatment |  |  |  |  | 
C[C@H](CC[C@@H]1OC1(C)C)[C@H]1C=C[C@@](C)(O)CC1 [Lure #22, (3S,6S,7R,10S)-10,11-epoxy-1-bisabolen-3-ol] |  |  |  |  | more attractive than #23 | 2.73 ± 0.50d per treatment | 7.30 ± 2.02bc per treatment | 2.65 ± 0.44a per treatment | 21.90 ± 6.49ab per treatment | 1.36 ± 0.59bc per treatment | 0.80 ± 0.57 per treatment | 5.05 ± 1.01a per treatment | 0.15 ± 0.11 per treatment | field attractiveness to BMSB (in words) (listed as stereoisomer 1): attracted BMSB females, males, and nymphs
CC1=C[C@H](O)[C@@H]([C@@H](C)CC[C@@H]2OC2(C)C)CC1 [Lure #1, (3R,6R,7S,10S)-10,11-epoxy-1-bisabolen-3-ol] |  |  |  |  | inactive |  |  |  |  |  |  |  |  | Mean number BMSB adults (±SE) captured [7]: 3.08 ± 0.55b per trap per sample; Mean number BMSB nymphs (±SE) captured [7]: 14.63 ± 6.06 per trap per sample; Mean number BMSB adults (±SE) captured [8]: 0.03 ± 0.03 per trap per sample; Mean number BMSB nymphs (±SE) captured [8]: 0.00 ± 0.00 per trap per sample; Mean number BMSB adults (±SE) captured [9]: 0.55 ± 0.13ab per treatment; Mean number BMSB nymphs (±SE) captured [9]: 3.49 ± 0.67 per treatment; Mean number BMSB adults (±SE) captured [10]: 0.00 ± 0.20b per treatment; Mean number BMSB nymphs (±SE) captured [10]: 0.00 ± 0.00 per treatment
C[C@H](CC[C@@H]1OC1(C)C)[C@H]1C=C[C@](C)(O)CC1 [Lure #18, (3R,6S,7R,10S)-10,11-epoxy-1-bisabolen-3-ol] | 0.90 ± 0.38bc per treatment | 6.50 ± 2.08ab per treatment | 0.35 ± 0.13ab per treatment | 23.45 ± 9.95 per treatment | moderately attractive |  |  |  |  | 2.48 ± 0.70abc per treatment | 0.60 ± 0.37 per treatment | 4.15 ± 1.17a per treatment | 0.05 ± 0.05 per treatment | 

Source: patent US9451771B2, “Compositions and methods to attract the brown marmorated stink bug (BMSB), Halyomorpha halys” (United States of America as Represented by the Secretary of …, priority 2012, dated 2016)
